One assay addresses human APJ receptor (Homo sapiens (Human), UniProt P35414). The assay is described as follows: Intracellular cAMP accumulation assay (APJ hcAMP, HTRF). The assay is classed as cell-based. As to conditions: human APJ, cAMP accumulation; read-out: Human APJ cAMP EC50 Potency range. In a few lines: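 HEK293 cells stably expressing human APJ, 5,000 per well, incubated 30 min at rt with compound, […] and 2 μM forskolin. cAMP measured by HTRF against a cAMP standard curve as inhibition of forskolin-driven production. EC50 from variable-slope sigmoidal fit.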
human APJ receptor, sequence (P35414 whole entry): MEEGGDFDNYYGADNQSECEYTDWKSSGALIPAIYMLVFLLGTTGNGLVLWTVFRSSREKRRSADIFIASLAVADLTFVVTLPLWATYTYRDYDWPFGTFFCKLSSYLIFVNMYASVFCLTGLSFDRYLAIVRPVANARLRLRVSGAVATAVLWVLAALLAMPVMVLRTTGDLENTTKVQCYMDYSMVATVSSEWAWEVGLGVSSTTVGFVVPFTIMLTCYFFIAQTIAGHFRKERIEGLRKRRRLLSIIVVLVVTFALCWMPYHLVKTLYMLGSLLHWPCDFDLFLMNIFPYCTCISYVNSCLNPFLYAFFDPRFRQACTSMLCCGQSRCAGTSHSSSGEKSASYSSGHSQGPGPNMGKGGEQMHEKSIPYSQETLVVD
`CCCCc1nc(=O)c(S(=O)(=O)c2ccc(-c3cncc(F)c3)cc2)c(O)n1[C@@H](CC)c1cccc(F)c1` [Example 214, 2-butyl-1-[(1S)-1-(3-fluorophenyl)propyl]-5-[4-(5-fluoropyridin-3-yl)benzenesulfonyl]-6-hydroxy-1,4-dihydropyrimidin-4-one]: the EC50 lay within 0.01 to 10 nM.

In the case of `CCCCc1nc(=O)c(S(=O)(=O)c2ccc(-c3cccnc3C)cc2)c(O)n1[C@@H](CC)c1ccc2c(c1)OCO2` [Example 215, 1-[(1S)-1-(2H-1,3-benzodioxol-5-yl)propyl]-2-butyl-6-hydroxy-5-[4-(2-methylpyridin-3-yl)benzenesulfonyl]-1,4-dihydropyrimidin-4-one], the EC50 was in the range of 0.01 to 10 nM.

With `CCCCc1nc(O)c(S(=O)(=O)c2ccc(Br)cc2)c(=O)n1[C@@H](CC)c1cccc(F)c1` [Example 216, 5-(4-bromobenzenesulfonyl)-2-butyl-3-[(1S)-1-(3-fluorophenyl)propyl]-6-hydroxy-3,4-dihydropyrimidin-4-one], the EC50 lay within 0.01 to 10 nM.

Consider `CCCCc1nc(=O)c(S(=O)(=O)c2ccc(-c3ccnc(F)c3C)cc2)c(O)n1[C@@H](CC)c1cccc(F)c1` [Example 217, 2-butyl-5-[4-(2-fluoro-3-methylpyridin-4-yl)benzenesulfonyl]-1-[(1S)-1-(3-fluorophenyl)propyl]-6-hydroxy-1,4-dihydropyrimidin-4-one], for which the EC50 lay within 0.01 to 10 nM.

Turning to `CCCCc1nc(=O)c(S(=O)(=O)c2ccc(-c3cncc(F)c3)cc2)c(O)n1[C@@H](CC)c1ccc2c(c1)OCO2` [Example 218, 1-[(1S)-1-(2H-1,3-benzodioxol-5-yl)propyl]-2-butyl-5-[4-(5-fluoropyridin-3-yl)benzenesulfonyl]-6-hydroxy-1,4-dihydropyrimidin-4-one], the EC50 was 0.01 to 10 nM.

`CCCCc1nc(O)c(S(=O)(=O)c2ccc(Br)cc2)c(=O)n1[C@@H](CC)c1ccc2c(c1)OCO2` [Example 219, 3-[(1S)-1-(2H-1,3-benzodioxol-5-yl)propyl]-5-(4-bromobenzenesulfonyl)-2-butyl-6-hydroxy-3,4-dihydropyrimidin-4-one]: the EC50 was 0.01 to 10 nM.

Turning to `CCCCc1nc(=O)c(S(=O)(=O)c2ccc(-c3ccc(F)nc3C)cc2)c(O)n1[C@@H](CC)c1ccc2c(c1)OCO2` [Example 220, 1-[(1S)-1-(2H-1,3-benzodioxol-5-yl)propyl]-2-butyl-5-[4-(6-fluoro-2-methylpyridin-3-yl)benzenesulfonyl]-6-hydroxy-1,4-dihydropyrimidin-4-one], the EC50 is 0.01 to 10 nM.

Consider `CCCCc1nc(=O)c(S(=O)(=O)c2ccc(-c3cccnc3C)cc2)c(O)n1[C@H]1CCCc2ccccc21` [Example 221, 2-butyl-6-hydroxy-5-[4-(2-methylpyridin-3-yl)benzenesulfonyl]-1-[(1S)-1,2,3,4-tetrahydronaphthalen-1-yl]-1,4-dihydropyrimidin-4-one], for which the EC50 was 0.01 to 10 nM.

Take `CCCCc1nc(=O)c(S(=O)(=O)c2ccc(-c3cncc(F)c3)cc2)c(O)n1[C@H]1CCCc2ccccc21` [Example 222, 2-butyl-5-[4-(5-fluoropyridin-3-yl)benzenesulfonyl]-6-hydroxy-1-[(1S)-1,2,3,4-tetrahydronaphthalen-1-yl]-1,4 dihydropyrimidin-4-one]: the EC50 is 0.01 to 10 nM.

With `CCCCc1nc(O)c(S(=O)(=O)c2ccc(Br)cc2)c(=O)n1[C@@H](CC)c1cccc(C#N)c1` [Example 223, 3-[(1S)-1-[5-(4-bromobenzenesulfonyl)-2-butyl-4-hydroxy-6-oxo-1,6-dihydropyrimidin-1-yl]propyl]benzonitrile], the EC50 lay in the range of 0.01 to 10 nM.

For `CCCCc1nc(=O)c(S(=O)(=O)c2ccc(-c3ccncc3C)cc2)c(O)n1[C@H]1CCCc2ccccc21` [Example 224, 2-butyl-6-hydroxy-5-[4-(3-methylpyridin-4-yl)benzenesulfonyl]-1-[(1S)-1,2,3,4-tetrahydronaphthalen-1-yl]-1,4-dihydropyrimidin-4-one], the EC50 lay in the range of 0.01 to 10 nM.

Regarding `CCCCc1nc(=O)c(S(=O)(=O)c2ccc(-c3cncc(F)c3)cc2)c(O)n1[C@@H](CC)c1cccc(C#N)c1` [Example 225, 3-[(1S)-1-{2-butyl-5-[4-(5-fluoropyridin-3-yl)benzenesulfonyl]-6-hydroxy-4-oxo-1,4-dihydropyrimidin-1-yl}propyl]benzonitrile], the EC50 was 0.01 to 10 nM.

In the case of `CCCCc1nc(=O)c(S(=O)(=O)c2ccc(-c3ccc(F)nc3C)cc2)c(O)n1[C@@H](CC)c1cccc(C#N)c1` [Example 226, 3-[(1S)-1-{2-butyl-5-[4-(6-fluoro-2-methylpyridin-3-yl)benzenesulfonyl]-6-hydroxy-4-oxo-1,4-dihydropyrimidin-1-yl}propyl]benzonitrile], the EC50 is 0.01 to 10 nM.

With `CCCCc1nc(=O)c(S(=O)(=O)c2ccc(-c3cccnc3C)cc2)c(O)n1[C@@H](C)c1ccc(OC)cc1` [Example 227], the EC50 lay in the range of 0.01 to 10 nM.

Turning to `CCCCc1nc(=O)c(S(=O)(=O)c2ccc(-c3ccncc3C)cc2)c(O)n1[C@@H](C)c1ccccc1OC` [Example 228, 2-butyl-6-hydroxy-1-[(1S)-1-(2-methoxyphenyl)ethyl]-5-[4-(3-methylpyridin-4-yl)benzenesulfonyl]-1,4-dihydropyrimidin-4-one], the EC50 is 0.01 to 10 nM.

In the case of `CCCCc1nc(=O)c(S(=O)(=O)c2ccc(-c3ccncc3C)cc2)c(O)n1[C@@H](CC)c1cccc(C#N)c1` [Example 229, 3-[(1S)-1-{2-butyl-6-hydroxy-5-[4-(3-methylpyridin-4-yl)benzenesulfonyl]-4-oxo-1,4-dihydropyrimidin-1-yl}propyl]benzonitrile], the EC50 is 0.01 to 10 nM.

As for `CCCCc1nc(=O)c(S(=O)(=O)c2ccc(-c3ccnc(F)c3C)cc2)c(O)n1[C@@H](CC)c1cccc(C#N)c1` [Example 230, 3-[(1S)-1-{2-butyl-5-[4-(2-fluoro-3-methylpyridin-4-yl)benzenesulfonyl]-6-hydroxy-4-oxo-1,4-dihydropyrimidin-1-yl}propyl]benzonitrile], the EC50 was in the range of 0.01 to 10 nM.

As to `CCCCc1nc(=O)c(S(=O)(=O)c2ccc(-c3cccnc3C)cc2)c(O)n1[C@@H](C)c1ccccc1OC` [Example 231, 2-butyl-6-hydroxy-1-[(1S)-1-(2-methoxyphenyl)ethyl]-5-[4-(2-methylpyridin-3-yl)benzenesulfonyl]-1,4-dihydropyrimidin-4-one], the EC50 fell in the range of 0.01 to 10 nM.

`CCCCc1nc(=O)c(S(=O)(=O)c2ccc(-c3cncc(F)c3)cc2)c(O)n1[C@@H](C)c1ccccc1OC` [Example 232, 2-butyl-5-[4-(5-fluoropyridin-3-yl)benzenesulfonyl]-6-hydroxy-1-[(1S)-1-(2-methoxyphenyl)ethyl]-1,4-dihydropyrimidin-4-one]: the EC50 was 0.01 to 10 nM.

`CCCCc1nc(=O)c(S(=O)(=O)c2ccc(-c3ccc(F)nc3C)cc2)c(O)n1[C@@H](C)c1ccc(OC)cc1` [Example 233, 2-butyl-5-[4-(6-fluoro-2-methylpyridin-3-yl)benzenesulfonyl]-6-hydroxy-1-[(1S)-1-(4-methoxyphenyl)ethyl]-1,4-dihydropyrimidin-4-one]: the EC50 lay in the range of 0.01 to 10 nM.

On to `CCCCc1nc(=O)c(S(=O)(=O)c2ccc(-c3cccnc3C)cc2)c(O)n1[C@@H](CC)c1cccc(C#N)c1` [Example 234, 3-[(1S)-1-{2-butyl-6-hydroxy-5-[4-(2-methylpyridin-3-yl)benzenesulfonyl]-4-oxo-1,4-dihydropyrimidin-1-yl}propyl]benzonitrile], for which the EC50 lay within 0.01 to 10 nM.

Take `CCCCc1nc(O)c(S(=O)(=O)c2ccc(Br)cc2)c(=O)n1[C@H]1CCCc2ccccc21` [Example 235, 5-(4-bromobenzenesulfonyl)-2-butyl-6-hydroxy-3-[(1S)-1,2,3,4-tetrahydronaphthalen-1-yl]-3,4-dihydropyrimidin-4-one]: the EC50 fell in the range of 10 to 100 nM.

For the compound `CCCCc1nc(=O)c(S(=O)(=O)c2ccc(-c3ccncc3C)cc2)c(O)n1[C@@H](C)c1ccc(OC)cc1` [Example 236, 2-butyl-6-hydroxy-1-[(1S)-1-(4-methoxyphenyl)ethyl]-5-[4-(3-methylpyridin-4-yl)benzenesulfonyl]-1,4-dihydropyrimidin-4-one], the EC50 fell in the range of 0.01 to 10 nM.

The same assay, now with this note: human APJ, intracellular cAMP accumulation; read-out: Human APJ cAMP EC50 Potency range.
On to `CC[C@@H](c1ccccc1)n1c(CCC(C)C)nc(=O)c(S(=O)(=O)c2ccc(-c3ccncc3C)cc2)c1O` [Example 209, 6-hydroxy-2-(3-methylbutyl)-5-[4-(3-methylpyridin-4-yl)benzenesulfonyl]-1-[(1S)-1-phenylpropyl]-1,4-dihydropyrimidin-4-one], for which the EC50 fell in the range of 0.01 to 10 nM.

On to `CCCCc1nc(=O)c(S(=O)(=O)c2ccc(-c3ccncc3C)cc2)c(O)n1[C@H](C)c1ccc(OC)cc1` [Example 210, 2-butyl-6-hydroxy-1-[(1R)-1-(4-methoxyphenyl)ethyl]-5-[4-(3-methylpyridin-4-yl)benzenesulfonyl]-1,4-dihydropyrimidin-4-one], for which the half-maximal effective concentration (EC50) lay within 0.01 to 10 nM.

Consider `CCCCc1nc(=O)c(S(=O)(=O)c2ccc(-c3ccnc(F)c3C)cc2)c(O)n1[C@@H](CC)c1ccc2c(c1)OCO2` [Example 211, 1-[(1S)-1-(2H-1,3-benzodioxol-5-yl)propyl]-2-butyl-5-[4-(2-fluoro-3-methylpyridin-4-yl)benzenesulfonyl]-6-hydroxy-1,4-dihydropyrimidin-4-one], for which the EC50 was in the range of 0.01 to 10 nM.

In the case of `CCCCc1nc(=O)c(S(=O)(=O)c2ccc(-c3ccncc3C)cc2)c(O)n1[C@@H](CC)c1cccc(F)c1` [Example 212, 2-butyl-1-[(1S)-1-(3-fluorophenyl)propyl]-6-hydroxy-5-[4-(3-methylpyridin-4-yl)benzenesulfonyl]-1,4-dihydropyrimidin-4-one], the EC50 was in the range of 0.01 to 10 nM.

`CCCCc1nc(=O)c(S(=O)(=O)c2ccc(-c3cccnc3C)cc2)c(O)n1[C@@H](CC)c1cccc(F)c1` [Example 213, 2-butyl-1-[(1S)-1-(3-fluorophenyl)propyl]-6-hydroxy-5-[4-(2-methylpyridin-3-yl)benzenesulfonyl]-1,4-dihydropyrimidin-4-one]: the EC50 was 0.01 to 10 nM.

Values taken from patent US10508104B2, “6-hydroxy-5-(phenyl/heteroarylsulfonyl)pyrimidin-4(1H)-one as APJ agonists” (Bristol-Myers Squibb Company, priority 2016, dated 2019).
